Test results: paper PMC5218480 (PLoS ONE, 2017)

Test system: MV-4-11 cells
Assay: Gene expression microarray analysis (Affymetrix PrimeView) and GSEA
Format: cell-based, human
Parameters: RFU PODN (11730768_x_at) / Fold change /veh PODN (11730768_x_at) / RFU LINC00158 (11744669_a_at) / Fold change /veh LINC00158 (11744669_a_at) / RFU DUSP10 (11751237_a_at) / Fold change /veh DUSP10 (11751237_a_at) / RFU ID3 (11757404_x_at) / Fold change /veh ID3 (11757404_x_at) / RFU PLEKHG5 (11737974_s_at) / Fold change /veh PLEKHG5 (11737974_s_at) / RFU LRRC4B (11730491_at) / Fold change /veh LRRC4B (11730491_at) / RFU GIMAP4 (11747438_a_at) / Fold change /veh GIMAP4 (11747438_a_at) / RFU KRT8 (11758183_x_at) / Fold change /veh KRT8 (11758183_x_at) / RFU CNN1 (11734310_a_at) / Fold change /veh CNN1 (11734310_a_at) / RFU VPS37D (11726825_at) / Fold change /veh VPS37D (11726825_at) / RFU C10orf10 (11716522_x_at) / Fold change /veh C10orf10 (11716522_x_at) / RFU KIR2DL2 /// KIR2DL4 /// KIR2DL5A /// KIR2DL5B /// KIR2DS1 /// KIR2DS2 /// KIR2DS3 /// KIR2DS4 /// KIR3DL3 /// KIR3DL3 /// KIR3DS1 (11738374_at) / Fold change /veh KIR2DL2 /// KIR2DL4 /// KIR2DL5A /// KIR2DL5B /// KIR2DS1 /// KIR2DS2 /// KIR2DS3 /// KIR2DS4 /// KIR3DL3 /// KIR3DL3 /// KIR3DS1 (11738374_at) / RFU C1QL1 (11718748_at) / Fold change /veh C1QL1 (11718748_at) / RFU TMPRSS4 (11747572_a_at) / Fold change /veh TMPRSS4 (11747572_a_at) / RFU HAMP (11756126_x_at) / Fold change /veh HAMP (11756126_x_at) / RFU RNFT2 (11725882_a_at) / Fold change /veh RNFT2 (11725882_a_at) / RFU NR4A2 (11747474_a_at) / Fold change /veh NR4A2 (11747474_a_at) / RFU ABCC12 (11746883_a_at) / Fold change /veh ABCC12 (11746883_a_at) / RFU TMEM136 (11760407_x_at) / Fold change /veh TMEM136 (11760407_x_at) / RFU CLDN22 /// WWC2 (11732394_at) / Fold change /veh CLDN22 /// WWC2 (11732394_at) / RFU HLA-DPB1 (11760878_x_at) / Fold change /veh HLA-DPB1 (11760878_x_at) / RFU SPINT1 (11716480_a_at) / Fold change /veh SPINT1 (11716480_a_at) / RFU GAP43 (11754022_s_at) / Fold change /veh GAP43 (11754022_s_at) / RFU A4GNT (11735810_at) / Fold change /veh A4GNT (11735810_at) / RFU PRB3 (11715151_x_at) / Fold change /veh PRB3 (11715151_x_at) / RFU TUBB4B (11761932_at) / Fold change /veh TUBB4B (11761932_at) / RFU CAPN14 (11732068_a_at) / Fold change /veh CAPN14 (11732068_a_at) / RFU TMCC2 (11721928_a_at) / Fold change /veh TMCC2 (11721928_a_at) / RFU IRGQ (11745062_a_at) / Fold change /veh IRGQ (11745062_a_at) / RFU FAM174B (11720279_a_at) / Fold change /veh FAM174B (11720279_a_at) / RFU TMPRSS4 (11748680_a_at) / Fold change /veh TMPRSS4 (11748680_a_at) / RFU FAM212B (11763350_a_at) / Fold change /veh FAM212B (11763350_a_at) / RFU PLEKHG5 (11743358_a_at) / Fold change /veh PLEKHG5 (11743358_a_at) / RFU ZSCAN30 (11745921_a_at) / Fold change /veh ZSCAN30 (11745921_a_at) / RFU CMKLR1 (11741424_a_at) / Fold change /veh CMKLR1 (11741424_a_at) / RFU LOC101060620 /// MAPK8IP1 (11723275_at) / Fold change /veh LOC101060620 /// MAPK8IP1 (11723275_at) / RFU SPTSSB (11747773_x_at) / Fold change /veh SPTSSB (11747773_x_at) / RFU PRSS12 (11739890_at) / Fold change /veh PRSS12 (11739890_at) / RFU BIN1 (11741810_x_at) / Fold change /veh BIN1 (11741810_x_at) / RFU WNT11 (11732464_a_at) / Fold change /veh WNT11 (11732464_a_at) / RFU C10orf10 (11716521_a_at) / Fold change /veh C10orf10 (11716521_a_at) / RFU C5orf56 (11738089_at) / Fold change /veh C5orf56 (11738089_at) / RFU CYB561 (11721691_x_at) / Fold change /veh CYB561 (11721691_x_at) / RFU ANKRD19P (11752326_a_at) / Fold change /veh ANKRD19P (11752326_a_at) / RFU OR2T12 /// OR2T33 /// OR2T8 (11738714_s_at) / Fold change /veh OR2T12 /// OR2T33 /// OR2T8 (11738714_s_at) / RFU VCAN (11748164_a_at) / Fold change /veh VCAN (11748164_a_at) / RFU JSRP1 (11732532_at) / Fold change /veh JSRP1 (11732532_at) / RFU KRTAP10-11 (11738290_x_at) / Fold change /veh KRTAP10-11 (11738290_x_at) / RFU MYO3A (11730013_a_at) / Fold change /veh MYO3A (11730013_a_at) / RFU EBF3 (11725865_a_at) / Fold change /veh EBF3 (11725865_a_at) / RFU CAMK2N1 (11719241_x_at) / Fold change /veh CAMK2N1 (11719241_x_at) / RFU C5orf56 (11738088_a_at) / Fold change /veh C5orf56 (11738088_a_at) / RFU OLFML3 (11715873_a_at) / Fold change /veh OLFML3 (11715873_a_at) / RFU LOC100653217 /// NTM (11731650_a_at) / Fold change /veh LOC100653217 /// NTM (11731650_a_at) / RFU MAPK11 (11762145_a_at) / Fold change /veh MAPK11 (11762145_a_at) / RFU FIZ1 (11724087_x_at) / Fold change /veh FIZ1 (11724087_x_at) / RFU OASL (11726364_x_at) / Fold change /veh OASL (11726364_x_at) / RFU SOX15 (11748057_x_at) / Fold change /veh SOX15 (11748057_x_at) / RFU CD79A (11719716_a_at) / Fold change /veh CD79A (11719716_a_at) / RFU HIST1H1D (11736915_at) / Fold change /veh HIST1H1D (11736915_at) / RFU CASKIN2 (11723855_a_at) / Fold change /veh CASKIN2 (11723855_a_at) / RFU LOC730098 (11760151_x_at) / Fold change /veh LOC730098 (11760151_x_at) / RFU OR4N2 (11742367_at) / Fold change /veh OR4N2 (11742367_at) / RFU PRRT2 (11749266_a_at) / Fold change /veh PRRT2 (11749266_a_at) / RFU SNX32 (11753110_a_at) / Fold change /veh SNX32 (11753110_a_at) / RFU CDHR5 (11726645_a_at) / Fold change /veh CDHR5 (11726645_a_at) / RFU RCAN1 (11760418_a_at) / Fold change /veh RCAN1 (11760418_a_at) / RFU FAM167A (11723789_a_at) / Fold change /veh FAM167A (11723789_a_at) / RFU FAM26E (11764081_at) / Fold change /veh FAM26E (11764081_at) / RFU ISYNA1 (11749810_s_at) / Fold change /veh ISYNA1 (11749810_s_at) / RFU ACY1 (11761880_at) / Fold change /veh ACY1 (11761880_at) / RFU 11764098_at / Fold change /veh 11764098_at / RFU SAMD14 (11745864_x_at) / Fold change /veh SAMD14 (11745864_x_at) / RFU NPB (11741838_a_at) / Fold change /veh NPB (11741838_a_at) / RFU TMPRSS6 (11731388_a_at) / Fold change /veh TMPRSS6 (11731388_a_at) / RFU KRTAP10-2 (11738614_at) / Fold change /veh KRTAP10-2 (11738614_at) / RFU ARHGAP8 /// PRR5-ARHGAP8 (11727945_x_at) / Fold change /veh ARHGAP8 /// PRR5-ARHGAP8 (11727945_x_at) / RFU KRTAP5-7 /// NADSYN1 (11734609_at) / Fold change /veh KRTAP5-7 /// NADSYN1 (11734609_at) / RFU RASL12 (11751679_a_at) / Fold change /veh RASL12 (11751679_a_at) / RFU CDKN2B (11736163_a_at) / Fold change /veh CDKN2B (11736163_a_at) / RFU PRF1 (11729649_at) / Fold change /veh PRF1 (11729649_at) / RFU, ZNF638 /// ZNF638-IT1 / Fold change vs veh, ZNF638 /// ZNF638-IT1 / RFU, PANK3 / Fold change vs veh, PANK3 / RFU, SH3YL1 / Fold change vs veh, SH3YL1 / RFU, ZEB2 / Fold change vs veh, ZEB2 / RFU, NRIP1 / Fold change vs veh, NRIP1 / RFU, PTTG1IP / Fold change vs veh, PTTG1IP / RFU, CAPN2 / Fold change vs veh, CAPN2 / RFU, MED14 / Fold change vs veh, MED14 / RFU, SNORA58 / Fold change vs veh, SNORA58 / RFU, C1orf63 / Fold change vs veh, C1orf63 / RFU, LRRFIP1 / Fold change vs veh, LRRFIP1 / RFU, NDUFAF7 / Fold change vs veh, NDUFAF7 / RFU, SLC12A2 / Fold change vs veh, SLC12A2 / RFU, IBTK / Fold change vs veh, IBTK / RFU, ESF1 / Fold change vs veh, ESF1 / Fold change vs veh, TMEM50B / RFU, TAOK1 / Fold change vs veh, TAOK1 / RFU, ACBD3 / Fold change vs veh, ACBD3 / RFU, TMA16 / Fold change vs veh, TMA16 / RFU, RWDD3 / Fold change vs veh, RWDD3 / RFU, BCAT1 / Fold change vs veh, BCAT1 / RFU, EDEM3 / Fold change vs veh, EDEM3 / RFU, TMEM33 / Fold change vs veh, TMEM33 / RFU, WDR75 / Fold change vs veh, WDR75 / RFU, AHCTF1 / Fold change vs veh, AHCTF1 / RFU, TFRC / Fold change vs veh, TFRC / RFU, ZDHHC17 / Fold change vs veh, ZDHHC17 / RFU, NOM1 / Fold change vs veh, NOM1 / RFU, ARL8B / Fold change vs veh, ARL8B / RFU, ZBTB11 / Fold change vs veh, ZBTB11 / RFU, TAMM41 / Fold change vs veh, TAMM41 / RFU, KIAA1704 /// LOC100996395 / Fold change vs veh, KIAA1704 /// LOC100996395 / RFU, ING1 / Fold change vs veh, ING1 / RFU, TRMT61B / Fold change vs veh, TRMT61B / RFU, FUBP3 / Fold change vs veh, FUBP3 / RFU, TP53 / Fold change vs veh, TP53 / RFU, TNKS2 / Fold change vs veh, TNKS2 / RFU, ZFP14 / Fold change vs veh, ZFP14 / RFU, ACTR2 / Fold change vs veh, ACTR2 / RFU, PPP3R1 / Fold change vs veh, PPP3R1 / RFU, PIK3R1 / Fold change vs veh, PIK3R1 / RFU, HNRNPA1 / Fold change vs veh, HNRNPA1 / RFU, RNF170 / Fold change vs veh, RNF170 / RFU, ZNF28 / Fold change vs veh, ZNF28 / RFU, RNGTT / Fold change vs veh, RNGTT / RFU, OGT / Fold change vs veh, OGT / RFU, BRD1 / Fold change vs veh, BRD1 / RFU, MARS / Fold change vs veh, MARS / RFU, ZNF655 / Fold change vs veh, ZNF655 / RFU, FAHD1 / Fold change vs veh, FAHD1 / RFU, BDP1 / Fold change vs veh, BDP1 / RFU, LRRCC1 / Fold change vs veh, LRRCC1 / RFU, ARID1A / Fold change vs veh, ARID1A / RFU, ZNF146 / Fold change vs veh, ZNF146 / RFU, ZNF330 / Fold change vs veh, ZNF330 / RFU, GPN3 / Fold change vs veh, GPN3 / RFU, C9orf123 / Fold change vs veh, C9orf123 / RFU, N4BP2L2 / Fold change vs veh, N4BP2L2 / RFU, ARFIP1 / Fold change vs veh, ARFIP1 / RFU, FAM179B / Fold change vs veh, FAM179B / RFU, BCL10 / Fold change vs veh, BCL10 / RFU, UHRF1BP1L / Fold change vs veh, UHRF1BP1L / RFU, BET1 / Fold change vs veh, BET1 / RFU, CNOT2 / Fold change vs veh, CNOT2 / RFU, ZNF268 / Fold change vs veh, ZNF268 / Fold change vs veh, ZNF507 / RFU, DGCR2 / Fold change vs veh, DGCR2 / RFU, WDSUB1 / Fold change vs veh, WDSUB1 / Fold change vs veh, HSP90B1 /// MIR3652 / RFU, ADSS / Fold change vs veh, ADSS / RFU, GK / Fold change vs veh, GK / RFU, ZNF148 / Fold change vs veh, ZNF148 / RFU, TAF9 / Fold change vs veh, TAF9 / RFU, SLC1A5 / Fold change vs veh, SLC1A5 / RFU, SLMO2 / Fold change vs veh, SLMO2 / RFU, ABCC4 / Fold change vs veh, ABCC4 / RFU, LOC101060439 /// RAP1B / Fold change vs veh, LOC101060439 /// RAP1B / RFU, RFX7 / Fold change vs veh, RFX7 / RFU, GTPBP10 / Fold change vs veh, GTPBP10 / RFU, CNEP1R1 / Fold change vs veh, CNEP1R1 / RFU, BIVM-ERCC5 /// ERCC5 / Fold change vs veh, BIVM-ERCC5 /// ERCC5 / RFU, ILF3 / Fold change vs veh, ILF3 / RFU 11762660_at / Fold change /veh 11762660_at / RFU VCAN (11757783_s_at) / Fold change /veh VCAN (11757783_s_at) / RFU DDX43 (11728927_at) / Fold change /veh DDX43 (11728927_at) / RFU KRT8 (11758188_x_at) / Fold change /veh KRT8 (11758188_x_at) / RFU NKD1 (11759106_at) / Fold change /veh NKD1 (11759106_at) / RFU SRD5A1 (11742802_a_at) / Fold change /veh SRD5A1 (11742802_a_at) / RFU TPSAB1 /// TPSB2 (11721975_s_at) / Fold change /veh TPSAB1 /// TPSB2 (11721975_s_at) / RFU GSTM3 (11746129_a_at) / Fold change /veh GSTM3 (11746129_a_at) / RFU IL23R (11737362_x_at) / Fold change /veh IL23R (11737362_x_at) / RFU TMEM51 (11727254_a_at) / Fold change /veh TMEM51 (11727254_a_at) / RFU PIWIL2 (11732686_x_at) / Fold change /veh PIWIL2 (11732686_x_at) / RFU ORM1 (11744905_x_at) / Fold change /veh ORM1 (11744905_x_at) / RFU CCDC152 (11743942_at) / Fold change /veh CCDC152 (11743942_at) / RFU ECM1 (11717891_a_at) / Fold change /veh ECM1 (11717891_a_at) / RFU IL23R (11748794_a_at) / Fold change /veh IL23R (11748794_a_at) / RFU TNFAIP8L3 (11732012_x_at) / Fold change /veh TNFAIP8L3 (11732012_x_at) / RFU MBOAT4 (11741988_at) / Fold change /veh MBOAT4 (11741988_at) / RFU 11764193_at / Fold change /veh 11764193_at / RFU TMEM53 (11763286_at) / Fold change /veh TMEM53 (11763286_at) / RFU MAGEB2 (11727129_at) / Fold change /veh MAGEB2 (11727129_at) / RFU TMEM200A (11744735_a_at) / Fold change /veh TMEM200A (11744735_a_at) / RFU CCDC152 (11751479_a_at) / Fold change /veh CCDC152 (11751479_a_at) / RFU FAM211A (11726209_a_at) / Fold change /veh FAM211A (11726209_a_at) / RFU RGS16 (11746705_a_at) / Fold change /veh RGS16 (11746705_a_at) / RFU VCAN (11755009_s_at) / Fold change /veh VCAN (11755009_s_at) / RFU RHOB (11743442_s_at) / Fold change /veh RHOB (11743442_s_at) / RFU RGS16 (11720943_a_at) / Fold change /veh RGS16 (11720943_a_at) / RFU RGS16 (11720944_at) / Fold change /veh RGS16 (11720944_at) / RFU, VPS4B / Fold change vs veh, VPS4B / RFU, CREB1 / Fold change vs veh, CREB1 / RFU, DNAJC13 / Fold change vs veh, DNAJC13 / RFU, GNAQ / Fold change vs veh, GNAQ / RFU, CDK5R1 / Fold change vs veh, CDK5R1 / RFU, ZRANB3 / Fold change vs veh, ZRANB3 / RFU, CUL4A / Fold change vs veh, CUL4A / RFU, CCNY / Fold change vs veh, CCNY / RFU, UFL1 / Fold change vs veh, UFL1 / RFU, COG3 / Fold change vs veh, COG3 / RFU, DIAPH2 / Fold change vs veh, DIAPH2 / RFU, SKA2 / Fold change vs veh, SKA2 / RFU, AFF3 / Fold change vs veh, AFF3 / RFU, LMF1 / Fold change vs veh, LMF1 / RFU, IPO11 / Fold change vs veh, IPO11 / RFU, DFFB / Fold change vs veh, DFFB / RFU, FOXP1 / Fold change vs veh, FOXP1 / RFU, CARD8 / Fold change vs veh, CARD8 / RFU, STRN3 / Fold change vs veh, STRN3 / RFU, ADK / Fold change vs veh, ADK / RFU, RASSF2 / Fold change vs veh, RASSF2 / RFU, WIPF1 / Fold change vs veh, WIPF1 / RFU, LARP1B / Fold change vs veh, LARP1B / RFU, RASA1 / Fold change vs veh, RASA1 / RFU, RB1 / Fold change vs veh, RB1 / RFU, PPFIA1 / Fold change vs veh, PPFIA1 / RFU, MAT2A / Fold change vs veh, MAT2A / RFU, CCT5 / Fold change vs veh, CCT5 / RFU, WDR92 / Fold change vs veh, WDR92 / RFU, CUX1 / Fold change vs veh, CUX1 / RFU, TTC7A / Fold change vs veh, TTC7A / RFU, TMEM135 / Fold change vs veh, TMEM135 / RFU, DEPTOR / Fold change vs veh, DEPTOR / RFU, CPM / Fold change vs veh, CPM / RFU, DNAJB6 / Fold change vs veh, DNAJB6 / RFU, CACNA2D3 / Fold change vs veh, CACNA2D3 / RFU, DTX4 / Fold change vs veh, DTX4 / RFU, TFCP2 / Fold change vs veh, TFCP2 / RFU, GMCL1 /// GMCL1P1 / Fold change vs veh, GMCL1 /// GMCL1P1 / RFU, AEBP2 / Fold change vs veh, AEBP2 / RFU, SNHG1 /// SNORD22 /// SNORD25 /// SNORD26 /// SNORD27 /// SNORD28 /// SNORD29 /// SNORD31 / Fold change vs veh, SNHG1 /// SNORD22 /// SNORD25 /// SNORD26 /// SNORD27 /// SNORD28 /// SNORD29 /// SNORD31 / Fold change (Aza/veh), C12orf56 (ProbeSet 11735607_a_at) / Fold change (ACY-1035/veh), C12orf56 (ProbeSet 11735607_a_at) / Fold change (Aza/veh), FGFR1OP (ProbeSet 11751329_s_at) / Fold change (ACY-1035/veh), FGFR1OP (ProbeSet 11751329_s_at) / Fold change (Aza/veh), VPS36 (ProbeSet 11739960_a_at) / Fold change (ACY-1035/veh), VPS36 (ProbeSet 11739960_a_at) / RFU SYPL1 (11715823_x_at) / Fold change /veh SYPL1 (11715823_x_at) / RFU IGFBP7 (11715501_s_at) / Fold change /veh IGFBP7 (11715501_s_at) / RFU REEP3 (11722064_at) / Fold change /veh REEP3 (11722064_at) / RFU IGLL1 (11728026_x_at) / Fold change /veh IGLL1 (11728026_x_at): dose or concentration left out as unconfirmed
Settings: ProbeSet 11717914_a_at; LIST B

Nc1ccc(-c2cccs2)cc1NC(=O)c1ccc2c(c1)cc(C1CC1)n2CCN1CCOCC1 [ACY-1035]
Fold change vs veh, BIVM-ERCC5 /// ERCC5: 1.00
